Assay results taken from ChEMBL document CHEMBL5584314, “Identification of an m6A Natural Inhibitor, Lobeline, That Reverses Lenvatinib Resistance in Hepatocellular Tumors” (J Nat Prod, 2024).
The source made the active and inactive calls. No cut-off for these calls is given here.

How the values were obtained:
[1] = molecular target: N6-adenosine-methyltransferase catalytic subunit (Homo sapiens) (UniProt Q86U44); assay: Inhibition of METTL3 in human Huh-7 cells assessed as down regulation of m6A RNA level incubated for 72 hrs by Dot blot assay; format: cell-based; conditions: dose 5-10 µM
N6-adenosine-methyltransferase catalytic subunit (Homo sapiens), sequence (Q86U44 whole entry): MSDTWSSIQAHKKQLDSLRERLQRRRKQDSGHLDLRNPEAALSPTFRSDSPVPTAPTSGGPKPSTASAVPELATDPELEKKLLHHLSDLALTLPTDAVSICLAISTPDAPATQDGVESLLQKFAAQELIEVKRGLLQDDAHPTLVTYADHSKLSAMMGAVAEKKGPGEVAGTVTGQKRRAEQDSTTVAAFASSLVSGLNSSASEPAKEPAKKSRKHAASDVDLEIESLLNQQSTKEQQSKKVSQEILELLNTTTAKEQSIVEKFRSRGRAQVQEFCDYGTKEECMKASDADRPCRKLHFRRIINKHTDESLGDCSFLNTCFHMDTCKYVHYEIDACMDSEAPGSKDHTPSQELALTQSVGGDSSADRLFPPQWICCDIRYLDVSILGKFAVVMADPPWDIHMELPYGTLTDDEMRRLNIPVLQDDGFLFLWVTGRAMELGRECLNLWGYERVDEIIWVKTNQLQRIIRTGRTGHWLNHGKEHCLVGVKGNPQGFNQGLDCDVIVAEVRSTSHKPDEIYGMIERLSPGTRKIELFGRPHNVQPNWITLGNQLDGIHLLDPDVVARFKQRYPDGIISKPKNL

Huh-7 = assay: Effect on METTL3 protein expression in human Huh-7 cells at 2 uM incubated for 72 hrs by Western blot analysis; format: functional, cell-based
[2] = molecular target: N6-adenosine-methyltransferase catalytic subunit (Homo sapiens) (UniProt Q86U44); assay: Binding affinity to METTL3 in human Huh-7 cells assessed as thermal stability at 44 to 64 degreeC at 2 uM incubated for 30 mins followed by […] analysis; format: cell-based
[3] = molecular target: N6-adenosine-methyltransferase catalytic subunit (Homo sapiens) (UniProt Q86U44); assay: Inhibition of METTL3 in human Lenvatinib-resistant Huh7/Len cells assessed as effect on MMP3 mRNA expression level at 2 uM incubated for 72 hrs by RT-PCR analysis; format: cell-based
[4] = molecular target: N6-adenosine-methyltransferase catalytic subunit (Homo sapiens) (UniProt Q86U44); assay: Inhibition of METTL3 in human Lenvatinib-resistant Huh7/Len cells assessed as effect on FGFR3 mRNA expression level at 2 uM incubated for 72 hrs by RT-PCR analysis; format: cell-based
[5] = molecular target: N6-adenosine-methyltransferase catalytic subunit (Homo sapiens) (UniProt Q86U44); assay: Inhibition of METTL3 in human Lenvatinib-resistant Huh7/Len cells assessed as effect on ADAMTS9 mRNA expression level at 2 uM incubated for 72 hrs by RT-PCR analysis; format: cell-based
[6] = molecular target: N6-adenosine-methyltransferase catalytic subunit (Homo sapiens) (UniProt Q86U44); assay: Inhibition of METTL3 in human Lenvatinib-resistant Huh7/Len cells assessed as effect on NPCL1 mRNA expression level at 2 uM incubated for 72 hrs by RT-PCR analysis; format: cell-based
[7] = molecular target: N6-adenosine-methyltransferase catalytic subunit (Homo sapiens) (UniProt Q86U44); assay: Inhibition of METTL3 in human Lenvatinib-resistant Huh7/Len cells assessed as effect on DEK mRNA expression level at 2 uM incubated for 72 hrs by RT-PCR analysis; format: cell-based
[8] = molecular target: N6-adenosine-methyltransferase catalytic subunit (Homo sapiens) (UniProt Q86U44); assay: Inhibition of METTL3 in human Lenvatinib-resistant Huh7/Len cells assessed as effect on MYC mRNA expression level at 2 uM incubated for 72 hrs by RT-PCR analysis; format: cell-based
[9] = molecular target: N6-adenosine-methyltransferase catalytic subunit (Homo sapiens) (UniProt Q86U44); assay: Inhibition of METTL3 in human Lenvatinib-resistant Huh7/Len cells assessed as effect on UCK2 mRNA expression level at 2 uM incubated for 72 hrs by RT-PCR analysis; format: cell-based
[10] = molecular target: N6-adenosine-methyltransferase catalytic subunit (Homo sapiens) (UniProt Q86U44); assay: Inhibition of METTL3 in human Lenvatinib-resistant Huh7/Len cells assessed as effect on CTSL mRNA expression level at 2 uM incubated for 72 hrs by RT-PCR analysis; format: cell-based
[11] = tested on: Lenvatinib-resistant Huh7/Len; assay: Antiproliferative activity against human Lenvatinib-resistant Huh7/Len cells assessed as inhibition of cell viability up to 40 uM after 72 hrs by CCK-8 assay; format: functional, cell-based
[12] = tested on: Lenvatinib-resistant Huh7/Len; assay: Antiproliferative activity against human Lenvatinib-resistant Huh7/Len cells assessed as inhibition of clone formation ability at 5 uM preincubated for 72 hrs and measured after 7 to 10 days by crystal violet staining based assay; format: functional, cell-based; conditions: time 10-13 day
[13] = tested on: Lenvatinib-resistant Hep3B/Len; assay: Antiproliferative activity against human Lenvatinib-resistant Hep3B/Len cells assessed as inhibition of clone formation ability at 5 uM preincubated for 72 hrs and measured after 7 to 10 days by crystal violet staining based assay; format: functional, cell-based; conditions: time 10-13 day
[14] = tested on: Lenvatinib-resistant Huh7/Len; assay: Inhibition of cell migration in human Lenvatinib-resistant Huh7/Len cells at 5 uM incubated for 48 hrs in presence of lenvatinib by transwell assay relative to control; format: functional
[15] = tested on: Lenvatinib-resistant Hep3B/Len; assay: Inhibition of cell migration in human Lenvatinib-resistant Hep3B/Len cells at 5 uM incubated for 48 hrs in presence of lenvatinib by transwell assay relative to control; format: functional
[16] = tested on: Lenvatinib-resistant Huh7/Len; assay: Antitumor activity against human Lenvatinib-resistant Huh7/Len cells xenografted in BALB/c nude mouse assessed as tumor growth inhibition at 1.5 mg/kg, ip cotreated with lenvatinib 5 times per week for 3 weeks; format: functional, organism-based
[17] = tested on: Lenvatinib-resistant Huh7/Len; assay: Antitumor activity against human Lenvatinib-resistant Huh7/Len cells xenografted in BALB/c nude mouse assessed as inhibition of tumor volume at 1.5 mg/kg, ip cotreated with lenvatinib 5 times per week for 3 weeks relative to control; format: functional; conditions: 504 h
[18] = Toxicity in BALB/c nude mouse xenografted with human Lenvatinib-resistant Huh7/Len cells assessed as changes in body weight at 1.5 mg/kg, ip administered 5 times per week for 3 weeks; format: organism-based; conditions: in vivo, 504 h
[19] = Toxicity in BALB/c nude mouse xenografted with human Lenvatinib-resistant Huh7/Len cells assessed as changes in organ index at 1.5 mg/kg, ip administered 5 times per week for 3 weeks; format: organism-based; conditions: in vivo, 504 h
[20] = Toxicity in BALB/c nude mouse xenografted with human Lenvatinib-resistant Huh7/Len cells assessed as changes in body weight at 1.5 mg/kg, ip cotreated with lenvatinib 5 times per week for 3 weeks; format: organism-based; conditions: in vivo, 504 h
[21] = Toxicity in BALB/c nude mouse xenografted with human Lenvatinib-resistant Huh7/Len cells assessed as changes in organ index at 1.5 mg/kg, ip cotreated with lenvatinib 5 times per week for 3 weeks; format: organism-based; conditions: in vivo, 504 h
[22] = tested on: Lenvatinib-resistant Huh7/Len; assay: Antitumor activity against human Lenvatinib-resistant Huh7/Len cells xenografted in BALB/c nude mouse assessed as reduction in METTL3 protein expression at 1.5 mg/kg, ip 5 times per week for 3 weeks by Western blot assay; format: functional, organism-based
[23] = tested on: Lenvatinib-resistant Huh7/Len; assay: Antitumor activity against human Lenvatinib-resistant Huh7/Len cells xenografted in BALB/c nude mouse assessed as reduction in m6A level in tumor tissue at 1.5 mg/kg, ip 5 times per week for 3 weeks by immunohistochemistry analysis; format: functional, organism-based
[24] = tested on: Lenvatinib-resistant Huh7/Len; assay: Antitumor activity against human Lenvatinib-resistant Huh7/Len cells xenografted in BALB/c nude mouse assessed as reduction in Ki-67 protein expression in tumor tissue at 1.5 mg/kg, ip cotreated with lenvatinib 5 times per week for 3 weeks by immunohistochemistry analysis relative to control; format: functional; parameters: scale not given: the % may be the effect or the level left
[25] = tested on: Lenvatinib-resistant Huh7/Len; assay: Induction of apoptosis in human Lenvatinib-resistant Huh7/Len cells xenografted in BALB/c nude mouse assessed as apoptotic cells in tumor tissue at 1.5 mg/kg, ip cotreated with lenvatinib 5 times per week for 3 weeks by TUNEL assay; format: functional, organism-based
[26] = Toxicity in BALB/c nude mouse PDX model xenografted with human Lenvatinib-resistant HCC/Len cells assessed as changes in organ index at 1.5 mg/kg, ip administered 5 times per week for 3 weeks; format: organism-based; conditions: in vivo, 504 h
[27] = Toxicity in BALB/c nude mouse PDX model xenografted with human Lenvatinib-resistant HCC/Len cells assessed as changes in body weight at 1.5 mg/kg, ip cotreated with lenvatinib 5 times per week for 3 weeks; format: organism-based; conditions: in vivo, 504 h
[28] = tested on: Lenvatinib-resistant HCC/Len; assay: Antitumor activity against human Lenvatinib-resistant HCC/Len cells xenografted in BALB/c nude mouse model of PDX assessed as reduction in m6A expression in tumor tissue at 1.5 mg/kg, ip cotreated with lenvatinib 5 times per week for 3 weeks by immunohistochemistry analysis relative to control; format: functional, organism-based
[29] = tested on: Lenvatinib-resistant Huh7/Len; assay: Anticancer activity against human Lenvatinib-resistant Huh7/Len cells assessed as increase in m6A modification in promoter region by MeRIP-m6A -sequencing analysis; format: functional, cell-based
[30] = tested on: Lenvatinib-resistant Huh7/Len; assay: Anticancer activity against human Lenvatinib-resistant Huh7/Len cells assessed as increase in m6A modification in coding region by MeRIP-m6A -sequencing analysis; format: functional, cell-based
[31] = tested on: Lenvatinib-resistant Huh7/Len; assay: Anticancer activity against human Lenvatinib-resistant Huh7/Len cells assessed as reduction in UBE3B protein expression at 2 uM by Western blot analysis; format: functional, cell-based

In the case of `CN1[C@@H](CC(=O)c2ccccc2)CCC[C@H]1C[C@H](O)c1ccccc1` [LOBELINE], the inhibition [1] is reported as “Dose-Dependent Effect”, the Activity (Huh-7) is reported as “inactive” and the Activity [2] is reported as “Active”. The inhibition [3] was “Active”, the inhibition [4] was “Active” and the inhibition [5] was “Active”. For the same compound, the inhibition [6] was “Active”, the inhibition [7] was “Active” and the inhibition [8] was “Active”. The inhibition [9] was “Active”, the inhibition [10] was “Active” and the inhibition [11] was “Active”. For the same compound, the inhibition [12] was “inactive”, the inhibition [13] was “inactive” and the inhibition at 5 µM [14] was 42%. For the same compound, the inhibition at 5 µM [15] was 42%, the TGI [16] was “Active” and the inhibition in vivo at 1.5 mg/kg [17] was 68%. The Activity [18] was “Non-Toxic”, the Activity [19] was “Non-Toxic” and the Activity [20] was “Non-Toxic”. For the same compound, the Activity [21] was “Non-Toxic”, the Activity [22] was “inactive” and the Activity [23] was “Active”. The Activity [24] was 30%, the Activity [25] was “Active” and the Activity [26] was “Non-Toxic”. For the same compound, the Activity [27] was “Non-Toxic”, the Activity [28] was “Active” and the Activity [29] was “Active”. For the same compound, the Activity [30] was “Active” and the Activity [31] was “Active”.
